Reference: ChEMBL document CHEMBL2396569, “6'-Methyl-5'-homoaristeromycin: a structural variation of the anti-orthopox virus candidate 5'-homoaristeromycin” (Bioorg Med Chem, 2013)
pIC50: −log10 of the molar value. Activity calls are given as the source filed them. No cut-off for these calls is given here.

Key:
[1] = system: Vesicular stomatitis virus; assay: Antiviral activity against Vesicular stomatitis virus infected in human HEL cells assessed as inhibition of virus-induced cytopathic effect after 3 days by microscopic analysis; type: functional, organism-based; conditions: 72 h
[2] = system: West Nile virus; assay: Antiviral activity against West Nile virus; type: functional, organism-based
[3] = system: Human betaherpesvirus 5; assay: Antiviral activity against Human cytomegalovirus; type: functional, organism-based
[4] = system: Reovirus sp.; assay: Antiviral activity against Reovirus; type: functional, organism-based
[5] = system: Human alphaherpesvirus 1; assay: Antiviral activity against Herpes simplex virus 1; type: functional, organism-based
[6] = system: Enterovirus; assay: Antiviral activity against Rhinovirus; type: functional, organism-based
[7] = system: unidentified adenovirus; assay: Antiviral activity against Adenovirus; type: functional, organism-based
[8] = system: Coxsackievirus B4; assay: Antiviral activity against Human coxsackievirus B4; type: functional, organism-based
[9] = system: Cowpox virus; assay: Antiviral activity against Cowpox virus infected in african green monkey Vero 76 cells assessed as inhibition of virus-induced cytopathic effect after 3 days by microscopic analysis; type: functional, organism-based; conditions: 72 h
[10] = system: Feline coronavirus; assay: Antiviral activity against Feline coronavirus; type: functional, organism-based
[11] = system: Dengue virus; assay: Antiviral activity against Dengue virus; type: functional, organism-based
[12] = system: Hepatitis B virus; assay: Antiviral activity against Hepatitis B virus; type: functional, organism-based
[13] = Cytotoxicity against african green monkey Vero 76 cells after 3 days by neutral red uptake assay; type: cell-based; conditions: chlorocebus sabaeus
[14] = system: Respiratory syncytial virus; assay: Antiviral activity against Respiratory syncytial virus; type: functional, organism-based
[15] = system: Human alphaherpesvirus 3; assay: Antiviral activity against Varicella zoster virus; type: functional, organism-based
[16] = Cytotoxicity against human HEL cells after 3 days by neutral red uptake assay; type: cell-based
[17] = system: Human gammaherpesvirus 4; assay: Antiviral activity against Epstein Barr virus infected in human Daudi cells assessed as inhibition of virus-induced cytopathic effect after 3 days by microscopic analysis; type: functional, organism-based; conditions: human gammaherpesvirus 4, Daudi, 72 h
[18] = system: Pichinde virus; assay: Antiviral activity against Pichinde virus; type: functional, organism-based
[19] = system: Influenza A virus; assay: Antiviral activity against Influenza A virus H3N2; type: functional, organism-based
[20] = system: unidentified human coronavirus; assay: Antiviral activity against Human coronavirus; type: functional
[21] = system: Influenza A virus; assay: Antiviral activity against Influenza A virus H1N1; type: functional, organism-based
[22] = system: Punta Toro virus; assay: Antiviral activity against Punta Toro virus; type: functional, organism-based
[23] = system: Measles morbillivirus; assay: Antiviral activity against Measles virus; type: functional, organism-based
[24] = system: Yellow fever virus; assay: Antiviral activity against Yellow fever virus; type: functional, organism-based
[25] = system: Influenza B virus; assay: Antiviral activity against Influenza B virus; type: functional, organism-based
[26] = system: Vaccinia virus; assay: Antiviral activity against Vaccinia virus infected in african green monkey Vero 76 cells assessed as inhibition of virus-induced cytopathic effect after 3 days by microscopic analysis; type: functional, organism-based; conditions: Orthopoxvirus vaccinia, 72 h
[27] = system: Venezuelan equine encephalitis virus; assay: Antiviral activity against Venezuelan equine encephalitis virus; type: functional, organism-based
[28] = system: Human respirovirus 3; assay: Antiviral activity against Human parainfluenza virus 3; type: functional, organism-based
[29] = system: Hepatitis C virus; assay: Antiviral activity against Hepatitis C virus; type: functional, organism-based; conditions: Hepacivirus hominis
[30] = system: Human alphaherpesvirus 2; assay: Antiviral activity against Herpes simplex virus 2; type: functional, organism-based
[31] = Cytotoxicity against human Daudi cells after 3 days by neutral red uptake assay; type: cell-based
[32] = system: Sindbis virus; assay: Antiviral activity against Sindbis virus; type: functional, organism-based

Question: Which results are given for C[C@@H](O)C[C@H]1C[C@@H](n2cnc3c(N)ncnc32)[C@H](O)[C@@H]1O (mixture of isomers)?
Answer: pIC50 [1]: 5.32; Activity [2]: inactive; Activity [3]: inactive; Activity [4]: inactive; Activity [5]: inactive; Activity [6]: inactive; Activity [7]: inactive; Activity [8]: inactive; pIC50 [9]: 3.65; Activity [10]: inactive; Activity [11]: inactive; Activity [12]: inactive; CC50 at 72 h [13]: > 300 µM; Activity [14]: inactive; Activity [15]: inactive; CC50 at 72 h [16]: > 300 µM; pIC50 [17]: 5.18; Activity [18]: inactive; Activity [19]: inactive; Activity [20]: inactive; Activity [21]: inactive; Activity [22]: inactive; Activity [23]: inactive; Activity [24]: inactive; Activity [25]: inactive; pIC50 [26]: 4.62; Activity [27]: inactive; Activity [28]: inactive; Activity [29]: inactive; Activity [30]: inactive; CC50 at 72 h [31]: > 300 µM; Activity [32]: inactive

Question: With Nc1ncnc2c1ncn2[C@@H]1C[C@H](CCO)[C@@H](O)[C@H]1O as the molecule, how does the pIC50 [9] read?
Answer: The pIC50 was 6.31.

Question: And the CC50 at 72 h [13]?
Answer: Its CC50 at 72 h is over 300 µM.

Question: What about the pIC50 [26] of the same molecule?
Answer: Its pIC50 is 5.37.

Question: Which results are given for C[C@H](O)C[C@H]1C[C@@H](n2cnc3c(N)ncnc32)[C@H](O)[C@@H]1O (mixture of isomers)?
Answer: pIC50 [1]: 5.80; Activity [2]: inactive; Activity [3]: inactive; Activity [4]: inactive; Activity [5]: inactive; Activity [6]: inactive; Activity [7]: inactive; Activity [8]: inactive; pIC50 [9]: 3.79; Activity [10]: inactive; Activity [11]: inactive; Activity [12]: inactive; CC50 at 72 h [13]: > 300 µM; Activity [14]: inactive; Activity [15]: inactive; CC50 at 72 h [16]: > 300 µM; pIC50 [17]: 5.19; Activity [18]: inactive; Activity [19]: inactive; Activity [20]: inactive; Activity [21]: inactive; Activity [22]: inactive; Activity [23]: inactive; Activity [24]: inactive; Activity [25]: inactive; pIC50 [26]: 5.32; Activity [27]: inactive; Activity [28]: inactive; Activity [29]: inactive; Activity [30]: inactive; CC50 at 72 h [31]: > 300 µM; Activity [32]: inactive
